Results from the supplement of paper PMC3974653.
Counter-ions that a name gives are not always drawn.

Tested on: MTT (mouse pheochromocytoma)
Assay: IC50 of cell viability (ATP content)
Settings: (24 or 48 h)
Outline: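 Library compounds in DMSO (23 nl by pintool, 8 concentrations, final 0.5 nM to 46 µM) were applied for 24 or 48 hrs to MTT mouse pheochromocytoma cells that had been cultured overnight at 37°C, 5% CO2 in white 1536-well plates. Cell viability was measured by CellTiter-Glo ATP luminescence, read after 15 minutes, with positive-control wells set at 100% and DMSO wells at 0%. A four-parameter logistic fit of the normalised signals yielded the IC50.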

| IC50 of cell viability [µM] | SMILES |
| --- | --- |
| > 46 | CC1(C(=O)O)CCC2(C)CCC3(C)C(=CC(=O)C4C5(C)CCC(O)C(C)(C)C5CCC43C)C2C1 (stereo not drawn) [18ALPHA-GLYCYRRHETINIC ACID] |
| > 46 | CCCCCN(C)CC[C@@](O)(P(=O)([O-])O)P(=O)(O)O [IBANDRONATE SODIUM] |
| > 46 | C=C1/C(=C\C=C2/CCC[C@]3(C)[C@@H]([C@H](C)CCCC(C)(C)O)CC[C@@H]23)C[C@@H](O)C[C@@H]1O [CALCITRIOL] |
| > 46 | O=C(Nc1ccc(Cl)c(Cl)c1)C1CC1 [CYPROMID] |
| > 46 | C#C[C@]1(OC(C)=O)CC[C@H]2[C@@H]3CCC4=C/C(=N/O)CC[C@@H]4[C@H]3CC[C@@]21CC [NORGESTIMATE] |
| > 46 | C[C@@H]1O[C@@H](OC[C@H]2O[C@@H](Oc3c(-c4ccc(O)c(O)c4)oc4cc(O)cc(O)c4c3=O)[C@H](O)[C@@H](O)[C@@H]2O)[C@H](O)[C@H](O)[C@H]1O [Rutin] |
| > 46 | CC(=O)Nc1ccccc1 [Acetanilide] |
| > 46 | Nc1ccc([N+](=O)[O-])cc1O [2-Amino-5-nitrophenol] |
| > 46 | Cc1cc(O)cc(C)c1Cl [Chloroxylenol] |
| > 46 | C=CC(=O)O [CARBOMER 940] |
| > 46 | CCOC(=O)[N-]c1c[n+](N2CCOCC2)no1 [Molsidomine] |
| > 46 | CCCCCCCCCCCCCC(=O)OC(C)C [Tetradecanoic acid, 1-methylethyl ester] |
| > 46 | CC(=O)Oc1ccc(C)cc1 [CRESYL ACETATE] |
| > 46 | O=[N+]([O-])c1cccc([S+](=O)([O-])NCCN[S+](=O)([O-])c2cccc([N+](=O)[O-])c2)c1 [Dinsed] |
| > 46 | CC(C)N1CCN(c2ccc(OC[C@@H]3CO[C@@](Cn4cncn4)(c4ccc(Cl)cc4Cl)O3)cc2)CC1 [Terconazole] |
| > 46 | O=C(Oc1ccccc1C(=O)O)c1ccccc1O [SALSALATE] |

| IC50 of cell viability [µM] | SMILES |
| --- | --- |
| > 46 | Oc1cc(O)c2c(c1)OC(c1ccc(O)c(O)c1)C(O)C2 (centres undefined) [EPICATECHIN] |
| > 46 | O=C(O)/C=C/c1ccccc1 [CINNAMIC ACID] |
| > 46 | CCCCCCCCCCCCOS(=O)(=O)[O-] [Sodium dodecyl sulfate] |
| > 46 | CC1(C)[C@@H](O)CC[C@@]2(C)[C@H]1CC[C@]3(C)[C@@H]2C(=O)\C=C/4[C@@H]5C[C@](C)(CC[C@]5(C)CC[C@@]34C)C(O)=O [ENOXOLONE] |
| > 46 | CN1CCN(CC(=O)N2c3ccccc3C(=O)Nc3cccnc32)CC1 [PIRENZEPINE] |
| > 46 | CC(=O)Nc1c(I)cc(I)c(C(=O)O)c1I [ACETRIAZOIC ACID] |
| > 46 | CCc1cc(Cl)c(OC)c(C(=O)NC[C@H]2CCCN2CC)c1O [S(-)Eticlopride hydrochloride] |
| > 46 | CN(C)C(=O)COC(=O)Cc1ccc(OC(=O)c2ccc(NC(=N)N)cc2)cc1 [CAMOSTAT MESILATE] |
| > 46 | Clc1ccc(C(c2ccccc2Cl)C(Cl)Cl)cc1 (centres undefined) [Mitotane] |
| > 46 | O=C1NC2CCCCN2C12CCN(CCCN1c3ccccc3CCc3ccc(Cl)cc31)CC2 (centres undefined) [Mosapramine] |
| > 46 | COc1ccc(/C=C/C(=O)Nc2ccccc2C(=O)O)cc1OC [Tranilast] |
| > 46 | Nc1ncnc2c1ncn2[C@@H]1O[C@@H]2COP(=O)(O)O[C@H]2[C@H]1O [Adenosine 3',5'-cyclic monophosphate] |
| > 46 | COc1ccc(C(=O)c2ccccc2)c(O)c1 [Oxybenzone] |
| > 46 | O=C([O-])CCC/C=C\C[C@@H]1[C@@H](/C=C/[C@@H](O)COc2cccc(Cl)c2)[C@H](O)C[C@@H]1O [CLOPROSTENOL SODIUM] |
| > 46 | Cc1ccccc1C(=O)N1CC/C(=N/OS(=O)(=O)[O-])c2ccc(Cl)cc21 [ALILUSEM POTASSIUM] |
| > 46 | O=C(NCN1CCOCC1)c1cnccn1 [Morinamida] |

The remaining lines, values behind:

| SMILES | IC50 of cell viability [µM] |
| --- | --- |
| COc1ccc(C(=O)c2ccc(C)cc2)c(O)c1 [Mexenone] | > 46 |
| COc1ccc(CCN(C)CCCC(C#N)(c2cc(OC)c(OC)c(OC)c2)C(C)C)cc1OC (centres undefined) [METHOXY VERAPAMIL] | > 46 |
| CNc1cc(OC)c(C(=O)NC2CCN(Cc3ccccc3)C2C)cc1Cl (centres undefined) [Nemonapride] | > 46 |
| C/N=C(\NCc1ccccc1)[NH2+]C.C/N=C(\NCc1ccccc1)[NH2+]C.O=S(=O)([O-])[O-] [Bethanidine Sulfate (2:1)] | > 46 |
| C#CC1(OC(C)=O)CCC2C3CCC4=CC(OC(C)=O)CCC4C3CCC21C (centres undefined) [Ethynodiol Diacetate] | > 46 |
| CC1(C)C(\C=C(/Cl)Cl)C1C(=O)OCC2=CC=CC(OC3=CC=CC=C3)=C2 (centres undefined) [PERMETHRIN] | > 46 |
| S=C(S)N1CCNCC1 [PIPERAZINE-CARBON DISULFIDE COMPLEX] | > 46 |
| O=C([O-])c1cc(O)c2c3nc4ccccc4oc-3cc(=O)c2n1 [PIRENOXINE] | > 46 |
| Cc1cc(N[S+](=O)([O-])c2ccc(N)cc2)no1 [Sulfamethoxazole] | > 46 |
| Cc1ccc([S+](=O)([O-])NC(=O)NN2CCCCCC2)cc1 [TOLAZAMIDE] | > 46 |
| CCCCN(CCCC)CCCOC(=O)c1ccc(N)cc1 [Butacaine] | > 46 |
| CCC1(c2cnc[nH]2)Cc2ccccc2C1 [Atipamezole Hydrochloride] | > 46 |
| CC(C)OC(=O)c1cc(C(=O)OC(C)C)cc([N+](=O)[O-])c1 [Nitrothal-isopropyl] | > 46 |
| CCCN(CCC)C(=O)Cc1c(-c2ccc(Cl)cc2)nc2ccc(Cl)cn12 [Alpidem] | > 46 |
| CC(C)=CCC/C(C)=C/CO [GERANIOL] | > 46 |
| CCC1(c2ccccc2)C(=O)NC(=O)N(C(=O)c2ccccc2)C1=O (centres undefined) [Benzobarbital] | > 46 |
| COc1cc(CC(C)N)c(OC)cc1Br (racemic) [(±)-2,5-Dimethoxy-4-bromoamphetamine hydrobromide] | > 46 |
| CN1C(=O)NC(=O)C(C)(C2=CCCCC2)C1=O (centres undefined) [Hexobarbital] | > 46 |
| CN(C)Cc1ccccc1 [N,N-Dimethylbenzylamine] | > 46 |

| SMILES | IC50 of cell viability [µM] |
| --- | --- |
| COC(=O)CCC[N+](C)(C)C [CARPRONIUM CHLORIDE] | > 46 |
| O=C(NC1CCN(CCc2c[nH]c3ccccc23)CC1)c1ccccc1 [INDORAMIN HYDROCHLORIDE] | > 46 |
| [O-]Cl [Sodium hypochlorite] | > 46 |
| COc1ccc([S+](=O)([O-])Nc2nnc(CC(C)C)s2)cc1 [GLYSOBUZOLUM] | > 46 |
| C=C(C)[C@@H]1C2OC(=O)C1[C@]1(O)C[C@H]3O[C@]34C(=O)O[C@H]2[C@]14C.CC(C)(O)[C@@H]1C2OC(=O)[C@@H]1[C@]1(O)C[C@H]3O[C@]34C(=O)O[C@H]2[C@]14C [Picrotoxin] | > 46 |
| CC1=C(/C=C/C(C)=C/C=C/C(C)=C/CO)C(C)(C)CCC1 [Retinol] | > 46 |
| ClC/1=C(Cl)/[C@@]2(Cl)[C@H]3[C@H]4C[C@H]([C@@H]5O[C@H]45)[C@H]3[C@]1(Cl)C2(Cl)Cl [Dieldrin] | > 46 |
| ClC1=C(Cl)C2(Cl)C(CBr)CC1(Cl)C2(Cl)Cl (centres undefined) | > 46 |
| CC[C@@H](CO)NC(=O)[C@H]/1CN(C)[C@@H]2CC3=C[NH]C4=C3C(=CC=C4)\C2=C1 [METHYLERGOMETRINE] | > 46 |
| COc1ccc2cc1Oc1cc3c(cc1OC)CC[N+](C)(C)C3Cc1ccc(cc1)Oc1c(OC)c(OC)cc3c1C(C2)[N+](C)(C)CC3 (centres undefined) [METOCURINE IODIDE] | > 46 |
| NCCNCCNCCNCCN [Tetraethylenepentamine] | > 46 |
| CCCCCCCCCCCC(=O)N(CCO)CCO [LAURIC DIETHANOLAMIDE] | > 46 |
| C/C=C(\CC)C(=O)NC(N)=O [1-(2-ETHYLCROTONOYL)UREA] | > 46 |
| Nc1ccccc1N [1,2-Phenylenediamine] | > 46 |
| CCOC(=O)CN[C@@H](C(=O)N1CC[C@H]1C(=O)NCc1ccc(/C(N)=N/O)cc1)C1CCCCC1 [Ximelagatran] | > 46 |
| C/C(=C\c1csc(C)n1)[C@@H]1C[C@@H]2O[C@]2(C)CCC[C@H](C)[C@H](O)[C@@H](C)C(=O)C(C)(C)[C@@H](O)CC(=O)O1 [EPOTHILONE B] | > 46 |
| CCOC(=O)OCC/C(SC(=O)OCC)=C(\C)N(C=O)Cc1cnc(C)nc1N [CETOTIAMINE HYDROCHLORIDE] | > 46 |
| Clc1ccc([C@@H](OCCN2CCCCC2)c2ccccc2)cc1 [Cloperastine hydrochloride] | > 46 |
